Test results: ChEMBL document CHEMBL1201862, “PubChem BioAssay data set” (2004)
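Results reflect a 48-hour exposure of cells in 96-well plates to compound at five concentrations. Here, GI50 denotes the concentration required for 50% inhibition of growth.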 Active and inactive are the calls of the source. Rule as the data show it: active = GI50 up to about 1.1 µM and inactive = higher.

Columns and labels:
Test in all cases: inhibition of tumour cell growth, NCI panel, 48 h
[1] = test system: SF-268
[2] = test system: HCT-116
[3] = test system: NCI/ADR-RES
[4] = test system: SF-295
[5] = test system: HCT-15
[6] = test system: NCI-H226
[7] = test system: DMS-114
[8] = test system: SN12C
[9] = test system: SK-OV-3
[10] = test system: SNB-78
[11] = test system: OVCAR-3
[12] = test system: SF-539
[13] = test system: XF498
[14] = test system: RXF 393
[15] = test system: MOLT-4
[16] = test system: UACC-62
[17] = test system: HT-29
[18] = test system: IGROV-1
[19] = test system: HOP-62
[20] = test system: MCF7
[21] = test system: K562
[22] = test system: KM-20L2
[23] = test system: U-251
[24] = test system: NCI-H460
[25] = test system: HOP-18
[26] = test system: HCC 2998
[27] = test system: DLD-1
[28] = test system: SNB-75
[29] = test system: CCRF-CEM
[30] = test system: NCI-H23
[31] = test system: OVCAR-4
[32] = test system: SW-620
[33] = test system: SK-MEL-5
[34] = test system: Malme-3M
[35] = test system: NCI-H522
[36] = test system: SK-MEL-2
[37] = test system: EKVX
[38] = test system: A549
[39] = test system: DMS-273
[40] = test system: LOX IMVI
[41] = test system: OVCAR-5
[42] = test system: RPMI-8226
[43] = test system: HL-60
[44] = test system: KM12
[45] = test system: UO-31
[46] = test system: M19-MEL
[47] = test system: CAKI-1
[48] = test system: OVCAR-8
[49] = test system: COLO 205
[50] = test system: HOP-92
[51] = test system: A498
[52] = test system: SNB-19
[53] = test system: UACC-257
[54] = test system: SK-MEL-28
[55] = test system: SR
[56] = test system: M14
[57] = test system: LXFL 529
[58] = test system: TK-10
[59] = test system: 786-0
[60] = test system: ACHN

CC(=O)OCC1OC(n2cc(F)c(=O)[nH]c2=O)C(N)C(OC(C)=O)C1OC(C)=O (centres undefined)
GI50 [1]: > 100 µM (inactive) | GI50 [2]: > 100 µM (inactive) | GI50 [3]: > 100 µM (inactive) | GI50 [4]: > 100 µM (inactive) | GI50 [5]: > 100 µM | GI50 [6]: > 100 µM (inactive) | GI50 [7]: > 100 µM (inactive) | GI50 [8]: > 100 µM (inactive) | GI50 [9]: > 100 µM (inactive) | GI50 [10]: > 100 µM (inactive) | GI50 [11]: > 100 µM (inactive) | GI50 [12]: > 100 µM (inactive) | GI50 [13]: > 100 µM (inactive) | GI50 [14]: > 100 µM (inactive) | GI50 [15]: > 100 µM (inactive) | GI50 [16]: > 100 µM (inactive) | GI50 [17]: > 100 µM (inactive) | GI50 [18]: > 100 µM (inactive) | GI50 [19]: > 100 µM (inactive) | GI50 [20]: > 100 µM (inactive) | GI50 [21]: > 100 µM (inactive) | GI50 [22]: > 100 µM (inactive) | GI50 [23]: > 100 µM (inactive) | GI50 [24]: > 100 µM (inactive) | GI50 [25]: > 100 µM (inactive) | GI50 [26]: > 100 µM (inactive) | GI50 [27]: > 100 µM (inactive) | GI50 [28]: > 100 µM (inactive) | GI50 [29]: > 100 µM (inactive) | GI50 [30]: > 100 µM (inactive) | GI50 [31]: > 100 µM (inactive) | GI50 [32]: > 100 µM (inactive) | GI50 [33]: > 100 µM (inactive) | GI50 [34]: > 100 µM (inactive) | GI50 [35]: > 100 µM (inactive) | GI50 [36]: > 100 µM (inactive) | GI50 [37]: > 100 µM (inactive) | GI50 [38]: > 100 µM (inactive) | GI50 [39]: > 100 µM (inactive) | GI50 [40]: > 100 µM (inactive) | GI50 [41]: > 100 µM (inactive) | GI50 [42]: > 100 µM (inactive) | GI50 [43]: > 100 µM (inactive) | GI50 [44]: > 100 µM (inactive) | GI50 [45]: > 100 µM (inactive) | GI50 [46]: > 100 µM (inactive) | GI50 [47]: > 100 µM (inactive) | GI50 [48]: > 100 µM (inactive) | GI50 [49]: > 100 µM (inactive) | GI50 [50]: > 100 µM (inactive) | GI50 [51]: > 100 µM (inactive) | GI50 [52]: > 100 µM (inactive) | GI50 [53]: > 100 µM (inactive)

O=C1CSc2sc(=S)sc2S1
GI50 [1]: > 100 µM (inactive) | GI50 [2]: > 100 µM (inactive) | GI50 [3]: > 66.8 µM (inactive) | GI50 [4]: > 24.5 µM (inactive) | GI50 [5]: > 79.3 µM | GI50 [6]: > 100 µM (inactive) | GI50 [7]: > 100 µM (inactive) | GI50 [8]: > 70.1 µM (inactive) | GI50 [9]: > 75.3 µM (inactive) | GI50 [10]: > 63.7 µM (inactive) | GI50 [11]: > 100 µM (inactive) | GI50 [12]: > 100 µM (inactive) | GI50 [13]: > 100 µM (inactive) | GI50 [14]: 43.1 µM (inactive) | GI50 [15]: > 100 µM (inactive) | GI50 [16]: > 100 µM (inactive) | GI50 [17]: > 29.2 µM (inactive) | GI50 [18]: > 100 µM (inactive) | GI50 [19]: > 100 µM (inactive) | GI50 [20]: > 100 µM (inactive) | GI50 [21]: > 100 µM (inactive) | GI50 [22]: > 100 µM (inactive) | GI50 [23]: > 100 µM (inactive) | GI50 [24]: > 100 µM (inactive) | GI50 [25]: > 84.3 µM (inactive) | GI50 [54]: > 100 µM (inactive) | GI50 [26]: > 80.2 µM (inactive) | GI50 [27]: > 100 µM (inactive) | GI50 [28]: > 100 µM (inactive) | GI50 [29]: > 76.4 µM (inactive) | GI50 [30]: > 100 µM (inactive) | GI50 [31]: > 59.3 µM (inactive) | GI50 [32]: > 100 µM (inactive) | GI50 [33]: > 100 µM (inactive) | GI50 [34]: > 100 µM (inactive) | GI50 [35]: > 61.7 µM (inactive) | GI50 [36]: > 82.4 µM (inactive) | GI50 [37]: > 100 µM (inactive) | GI50 [38]: 50.8 µM (inactive) | GI50 [39]: 95.9 µM (inactive) | GI50 [40]: 61.1 µM (inactive) | GI50 [41]: > 100 µM (inactive) | GI50 [42]: 78.9 µM (inactive) | GI50 [43]: > 61.5 µM (inactive) | GI50 [44]: > 100 µM (inactive) | GI50 [45]: > 100 µM (inactive) | GI50 [46]: > 100 µM (inactive) | GI50 [48]: > 100 µM (inactive) | GI50 [49]: > 100 µM (inactive) | GI50 [50]: > 100 µM (inactive) | GI50 [51]: 31.3 µM (inactive) | GI50 [52]: > 100 µM (inactive) | GI50 [53]: > 100 µM (inactive)

C(CCC[Te][Te]CCCCCCOC1CCCCO1)CCOC1CCCCO1 (centres undefined)
GI50 [1]: 16.6 µM (inactive) | GI50 [2]: 19.8 µM (inactive) | GI50 [55]: 7.64 µM (inactive) | GI50 [4]: 15.9 µM (inactive) | GI50 [5]: 19.2 µM | GI50 [7]: 3.89 µM (inactive) | GI50 [8]: 13.7 µM (inactive) | GI50 [9]: 39.6 µM (inactive) | GI50 [10]: 17.1 µM (inactive) | GI50 [12]: 17.3 µM (inactive) | GI50 [13]: 10.2 µM (inactive) | GI50 [56]: 21.1 µM (inactive) | GI50 [15]: 9.82 µM (inactive) | GI50 [16]: 10.6 µM (inactive) | GI50 [17]: 12 µM (inactive) | GI50 [57]: 9.02 µM (inactive) | GI50 [18]: 16.5 µM (inactive) | GI50 [19]: 15.1 µM (inactive) | GI50 [21]: 5.86 µM (inactive) | GI50 [22]: 14.7 µM (inactive) | GI50 [23]: 11.8 µM (inactive) | GI50 [58]: 30.1 µM (inactive) | GI50 [59]: 15.5 µM (inactive) | GI50 [24]: 14.8 µM (inactive) | GI50 [25]: 19.3 µM (inactive) | GI50 [54]: 14.1 µM (inactive) | GI50 [26]: 14.1 µM (inactive) | GI50 [27]: 15.7 µM (inactive) | GI50 [28]: 17.3 µM (inactive) | GI50 [29]: 11 µM (inactive) | GI50 [30]: 12.4 µM (inactive) | GI50 [60]: 10.6 µM (inactive) | GI50 [32]: 18.2 µM (inactive) | GI50 [34]: 6.44 µM (inactive) | GI50 [36]: 13.3 µM (inactive) | GI50 [38]: 14.5 µM (inactive) | GI50 [40]: 13.6 µM (inactive) | GI50 [41]: 14 µM (inactive) | GI50 [43]: 8.69 µM (inactive) | GI50 [44]: 13.7 µM (inactive) | GI50 [45]: 19.8 µM (inactive) | GI50 [47]: 12.6 µM (inactive) | GI50 [48]: 16 µM (inactive) | GI50 [49]: 15.7 µM (inactive) | GI50 [50]: 12.2 µM (inactive) | GI50 [51]: 17.6 µM (inactive) | GI50 [52]: 14.4 µM (inactive) | GI50 [53]: 6.81 µM (inactive)
